In brackets after ≈: the same amount, converted by molar mass. Read-outs that look alike come from different tables or passages of the source.
Key:
[1] = Physicochemical properties; conditions: pale yellow powder
[2] = tested on: Proteus vulgaris GN76; test: Synergistic effect on MIC, microdilution transfer plate technique; assay type: cell-based
[3] = tested on: ddY mice; conditions: mouse, in vivo, ip, 500 mg/kg
[4] = tested on: Klebsiella pneumoniae K13; test: MIC by agar dilution method; assay type: cell-based; conditions: 37° C., 18 hours
Protocol: (§1) The MIC is measured by an agar dilution method based on the standard method of the Japanese Society of Chemotherapy (Japanese Society of Chemotherapy: The Revised Method of Determination of MIC Values, Chemotherapy 22, 1126-1128, […]). Specifically, the antibiotic is serially diluted with a 1/50 M phosphate buffer at a pH of 7.3 to prepare a twofold dilution series. One milliliter of each dilution and 9 ml of an agar medium (Heart Infusion Agar; a product of Difco Laboratories) are mixed and allowed to solidify in a Petri dish having a diameter of 9 cm. One loopful of the stock culture of the test microbe is inoculated in trypto-soy buillon (a product of Eiken Kagaku Co., Ltd.) and incubated at 37° C. for 18 hours. The resulting culture broth is diluted to a concentration of about 10^6 cells/ml with physiological saline and inoculated on the agar plate by means of a microplanter.

[5] = tested on: E. coli RGN823; test: MIC by agar dilution method; assay type: cell-based; conditions: Escherichia coli, 37° C., 18 hours
Protocol: as §1

[6] = tested on: P. rettgeri P7; test: MIC by agar dilution method; assay type: cell-based; conditions: Providencia rettgeri; P. rettgeri P7; agar dilution, 37° C., 18 hours; read-out: MIC
Protocol: as §1

[7] = tested on: S. aureus Smith; test: MIC by agar dilution method; assay type: cell-based; conditions: Staphylococcus aureus, 37° C., 18 hours
Protocol: as §1

[8] = tested on: Serratia marcesceus S18; test: MIC by agar dilution method; assay type: cell-based; conditions: 37° C., 18 hours
Protocol: as §1

[9] = tested on: Ent. cloacae 45; test: MIC by agar dilution method; assay type: cell-based; conditions: Enterobacter cloacae, 37° C., 18 hours
Protocol: as §1

[10] = tested on: Citrobacter Freundii GN346; test: MIC by agar dilution method; assay type: cell-based; conditions: 37° C., 18 hours
Protocol: as §1

[11] = tested on: S. epidermidis; test: MIC by agar dilution method; assay type: cell-based; conditions: Staphylococcus epidermidis, 37° C., 18 hours
Protocol: as §1

[12] = tested on: P. vulgaris GN76; test: MIC by agar dilution method; assay type: cell-based; conditions: Proteus vulgaris, 37° C., 18 hours
Protocol: as §1

[13] = tested on: Staphylococcus aureus 209P; test: MIC by agar dilution method; assay type: cell-based; conditions: 37° C., 18 hours
Protocol: as §1

[14] = tested on: Ser. marcesceus T55; test: MIC by agar dilution method; assay type: cell-based; conditions: 37° C., 18 hours
Protocol: as §1

[15] = tested on: Escherichia coli K-12; test: MIC by agar dilution method; assay type: cell-based; conditions: K12; Escherichia coli K-12; agar dilution, 37° C., 18 hours; read-out: MIC
Protocol: as §1

[16] = tested on: Ps. aeruginosa NCTC10490; test: MIC by agar dilution method; assay type: cell-based; conditions: Pseudomonas aeruginosa, 37° C., 18 hours
Protocol: as §1

[17] = tested on: Pseudomonas aenginosa IFO3445; test: MIC by agar dilution method; assay type: cell-based; conditions: 37° C., 18 hours
Protocol: as §1

[18] = tested on: Proteus mirabilis P6; test: MIC by agar dilution method; assay type: cell-based; conditions: Proteus mirabilis P6; agar dilution, 37° C., 18 hours; read-out: MIC
Protocol: as §1

[19] = tested on: Enterobacter aerogenes E19; test: MIC by agar dilution method; assay type: cell-based; conditions: Klebsiella aerogenes, 37° C., 18 hours
Protocol: as §1

[20] = tested on: Bacillus subtillis ATCC 6633; test: MIC by agar dilution method; assay type: cell-based
Protocol: as §1

[21] = tested on: Comamonas terrigena B996; test: MIC by agar dilution method; assay type: cell-based; conditions: 37° C., 18 hours
Protocol: as §1

[22] = tested on: S. aureus Russell; test: MIC by agar dilution method; assay type: cell-based; conditions: Staphylococcus aureus
Protocol: as §1

[23] = tested on: Ent. sp. E8; test: MIC by agar dilution method; assay type: cell-based; conditions: Ent. sp. E8; agar dilution, 37° C., 18 hours; read-out: MIC
Protocol: as §1

[24] = tested on: Providencia sp. P8; test: MIC by agar dilution method; assay type: cell-based; conditions: Providencia sp. P8; agar dilution, 37° C., 18 hours; read-out: MIC
Protocol: as §1

[25] = tested on: Alcaligenes Faecolis A1; test: MIC by agar dilution method; assay type: cell-based; conditions: Alcaligenes Faecolis A1; agar dilution, 37° C., 18 hours; read-out: MIC
Protocol: as §1

[26] = tested on: Sarcina lutea S19; test: MIC by agar dilution method; assay type: cell-based; conditions: Micrococcus luteus, 37° C., 18 hours
Protocol: as §1

[27] = tested on: Citrobacter Freundii GN346; test: Synergistic effect on MIC, microdilution transfer plate technique; assay type: cell-based
[28] = Stability (half life) in phosphate buffers of various pH; assay type: physicochemical; conditions: for half-life: 28° C.
Protocol: By adding 2% sodium hydroxide or 10% hydrochloric acid, the pH of 0.05 M phosphate buffer is adjusted to 4, 5, 6, 7, 8 and 9, respectively, and distributed into test tubes in an amount of 3 ml. Concentrated solution of antibiotic OA-6129A (0.05 ml) is added to each test tube and allowed to stand in a thermostatic chamber of 28° C. The time course curve of the concentration decrease of antibiotic OA-6129A is drawn by spectrophotometric measurement at 300 nm, from which the half life of the antibiotic at the indicated pH is calculated. As a control, antibiotic PS-5, a carbapenem compound described in the above-cited reference is simultaneously tested.

[29] = tested on: P. sp. P22; test: MIC by agar dilution method; assay type: cell-based; conditions: 37° C., 18 hours
Protocol: as §1

[30] = OA-6129A 25 combined with CER <5
[31] = S. aureus Russell, agar dilution, 37° C., 18 hours, read-out: MIC
[32] = ATCC6633, Bacillus subtillis ATCC 6633, agar dilution, 37° C., 18 hours, read-out: MIC

CC[C@H]1C(=O)N2C(C(=O)O)=C(SCCNC(=O)CCNC(=O)C(O)C(C)(C)CO)C[C@H]12 (relative stereo) [OA-6129A]
hygroscopicity [1]: hygroscopic | FIC index ([2]; OA-6129A 1.56 combined with ABPC (printed 3.3)): 0.28 | FIC index ([2]; OA-6129A 1.56 combined with CER 313): 0.28 | FIC index ([2]; OA-6129A 3.13 combined with ABPC 156): 0.19 | FIC index ([2]; OA-6129A 3.13 combined with CER 156): 0.19 | FIC index ([2]; OA-6129A 6.25 combined with ABPC 39): 0.16 | FIC index ([2]; OA-6129A 6.25 combined with CER 39): 0.16 | FIC index ([2]; OA-6129A 12.5 combined with ABPC 10): 0.26 | FIC index ([2]; OA-6129A 12.5 combined with CER 20): 0.27 | FIC index ([2]; OA-6129A 25 combined with ABPC 10): 0.51 | FIC index [2, 30]: 0.50 | MIC ([2]; Proteus vulgaris, GN76, alone, heart infusion broth, 10^5 cells/ml): 50 µg/mL | acute toxicity [3]: no acute toxicity is observed | MIC [4]: 50 µg/mL (≈ 109 µM) | MIC [5]: 12.5 µg/mL (≈ 27.3 µM) | MIC [6]: 25 µg/mL (≈ 54.6 µM) | MIC [7]: 1.56 µg/mL (≈ 3.41 µM) | MIC [8]: 100 µg/mL (≈ 219 µM) | MIC [9]: 50 µg/mL (≈ 109 µM) | MIC [10]: 50 µg/mL (≈ 109 µM) | MIC [11]: 1.56 µg/mL (≈ 3.41 µM) | MIC [12]: 100 µg/mL (≈ 219 µM) | MIC [13]: 0.78 µg/mL (≈ 1.7 µM) | MIC [14]: 100 µg/mL (≈ 219 µM) | MIC [15]: 12.5 µg/mL (≈ 27.3 µM) | MIC [16]: > 100 µg/mL | MIC [17]: > 100 µg/mL | MIC [18]: 50 µg/mL (≈ 109 µM) | MIC [19]: 25 µg/mL (≈ 54.6 µM) | MIC ([20]; Bacillus, ATCC6633, 18 h): 0.39 µg/mL (≈ 0.852 µM) | MIC [21]: 0.05 µg/mL (≈ 0.109 µM) | MIC [22, 31]: 0.78 µg/mL (≈ 1.7 µM) | MIC [23]: 12.5 µg/mL (≈ 27.3 µM) | MIC [24]: 12.5 µg/mL (≈ 27.3 µM) | MIC [25]: 1.56 µg/mL (≈ 3.41 µM) | MIC [26]: 0.78 µg/mL (≈ 1.7 µM) | MIC ([27]; Citrobacter freundii, GN346, alone, heart infusion broth, 10^5 cells/ml): 50 µg/mL | FIC index ([27]; OA-6129A 1.56 combined with ABPC […]): 1.03 | FIC index ([27]; OA-6129A 1.56 combined with CER 1250): 1.03 | FIC index ([27]; OA-6129A 3.13 combined with ABPC 625): 0.63 | FIC index ([27]; OA-6129A 3.13 combined with CER 625): 0.63 | FIC index ([27]; OA-6129A 6.25 combined with ABPC […]): 0.38 | FIC index ([27]; OA-6129A 6.25 combined with CER 313): 0.38 | FIC index ([27]; OA-6129A 12.5 combined with ABPC […]): 0.50 | FIC index ([27]; OA-6129A 12.5 combined with CER 313): 0.50 | FIC index ([27]; OA-6129A 25 combined with ABPC <5): 0.50 | FIC index [27, 30]: 0.50 | half-life ([28]; pH 4, 0.05 M phosphate buffer): 1.05 h | half-life ([28]; pH 5, 0.05 M phosphate buffer): 4.07 h | half-life ([28]; pH 6, 0.05 M phosphate buffer): 21.2 h | half-life ([28]; pH 7, 0.05 M phosphate buffer): 57.7 h | half-life ([28]; pH 8, 0.05 M phosphate buffer): 128 h | half-life ([28]; pH 9, 0.05 M phosphate buffer): 132 h

CC(OS(=O)(=O)O)[C@@H]1C(=O)N2C(C(=O)O)=C(SCCNC(=O)CCNC(=O)C(O)C(C)(C)CO)C[C@H]12 (relative stereo) [OA-6129C]
acute toxicity [3]: no acute toxicity is observed | MIC [4]: 12.5 µg/mL (≈ 22.6 µM) | MIC [5]: 0.39 µg/mL (≈ 0.704 µM) | MIC [6]: 0.2 µg/mL (≈ 0.361 µM) | MIC [7]: 0.78 µg/mL (≈ 1.41 µM) | MIC [8]: 12.5 µg/mL (≈ 22.6 µM) | MIC [29]: 0.78 µg/mL (≈ 1.41 µM) | MIC [9]: 50 µg/mL (≈ 90.3 µM) | MIC [10]: 50 µg/mL (≈ 90.3 µM) | MIC [11]: 3.13 µg/mL (≈ 5.65 µM) | MIC [12]: 1.56 µg/mL (≈ 2.82 µM) | MIC [13]: 0.1 µg/mL (≈ 0.181 µM) | MIC [14]: 12.5 µg/mL (≈ 22.6 µM) | MIC [15]: 0.78 µg/mL (≈ 1.41 µM) | MIC [16]: > 50 µg/mL | MIC [17]: 50 µg/mL (≈ 90.3 µM) | MIC [18]: 0.78 µg/mL (≈ 1.41 µM) | MIC [19]: 6.25 µg/mL (≈ 11.3 µM) | MIC [20, 32]: 0.1 µg/mL (≈ 0.181 µM) | MIC [21]: 0.1 µg/mL (≈ 0.181 µM) | MIC ([22]; 18 h): 3.13 µg/mL (≈ 5.65 µM) | MIC [23]: 1.56 µg/mL (≈ 2.82 µM) | MIC [24]: 0.2 µg/mL (≈ 0.361 µM) | MIC [25]: 0.39 µg/mL (≈ 0.704 µM) | MIC [26]: 0.78 µg/mL (≈ 1.41 µM) | stability relative to OA-6129A ([28]; phosphate buffer, pH 4 to 9, 28° C.): substantially the same stability as antibiotic OA-6129A

CC(O)[C@@H]1C(=O)N2C(C(=O)O)=C(SCCNC(=O)CCNC(=O)C(O)C(C)(C)CO)C[C@H]12 (relative stereo) [OA-6129B1]
MIC [4]: > 50 µg/mL | MIC [5]: 0.39 µg/mL (≈ 0.824 µM) | MIC [6]: 0.78 µg/mL (≈ 1.65 µM) | MIC [7]: 1.56 µg/mL (≈ 3.29 µM) | MIC [8]: 6.25 µg/mL (≈ 13.2 µM) | MIC [29]: > 50 µg/mL | MIC [9]: 6.25 µg/mL (≈ 13.2 µM) | MIC [10]: 6.25 µg/mL (≈ 13.2 µM) | MIC [11]: 0.78 µg/mL (≈ 1.65 µM) | MIC [12]: 50 µg/mL (≈ 106 µM) | MIC [13]: 0.1 µg/mL (≈ 0.211 µM) | MIC [14]: 12.5 µg/mL (≈ 26.4 µM) | MIC [15]: 0.39 µg/mL (≈ 0.824 µM) | MIC [16]: > 50 µg/mL | MIC [17]: > 50 µg/mL | MIC [18]: 0.78 µg/mL (≈ 1.65 µM) | MIC [19]: 3.13 µg/mL (≈ 6.61 µM) | MIC [20, 32]: 0.05 µg/mL (≈ 0.106 µM) | MIC [21]: 0.012 µg/mL (≈ 0.0253 µM) | MIC [22, 31]: 0.78 µg/mL (≈ 1.65 µM) | MIC [23]: 0.39 µg/mL (≈ 0.824 µM) | MIC [24]: 0.2 µg/mL (≈ 0.422 µM) | MIC [25]: 0.2 µg/mL (≈ 0.422 µM) | MIC [26]: 0.1 µg/mL (≈ 0.211 µM)
